Molecular target: LRRK2 (Homo sapiens (Human), UniProt Q5S007, G2019S)
Assay: In Vitro LRRK2 LabChip Assay (LRRK2 Ki)
Assay type: biochemical
Description: In Vitro LRRK2 LabChip Assay
This assay was used to determine a compound's potency in inhibiting activity of LRRK2 by determining, Kiapp, IC50, or percent inhibition values. In a polypropylene plate, LRRK2, fluorescently-labeled peptide substrate, ATP and test compound were incubated together. Using a LabChip 3000 (Caliper Life Sciences), after the reaction the substrate was separated by capillary electrophoresis into two populations: phosphorylated and unphosphorylated. The relative amounts of each were quantitated by fluorescence intensity. LRRK2 Ki was determined according to the equation: Y=V0*(1−((x+Ki*(1+S/Km)+Et)/(2*Et)−(((x+Ki*(1+S/Km)+Et)^2−(4*Et*x))^0.5)/(2*Et))). Ki values in Table 4 and elsewhere herein are shown in μM.
Assay conditions and materials used were as follows:
Kinase reaction time: 2 hours
Wild type in 5 mM MgCl2: 80 μM
Solid Support: Black 50 μL volume polypropylene 384 well plate (MatriCal cat #MP101-1-PP)
Non-binding plate: 384 well clear V-bottom polypropylene plates (Greiner cat #781280).
ATP: 10 mM ATP (Cell Signaling cat #9804).
Coating Reagent #3: Coating Reagent #3 (Caliper).
Complete Reaction Buffer: H2O/25 mM Tris, pH 8.0/5 mM MgCl2/2 mM DTT/0.01% Triton X-100.
Stop Solution: H2O/100 mM HEPES, pH 7.2/0.015% Brij-35/0.2% Coating Reagent #3/20 mM EDTA.
Separation Buffer: H2O/100 mM HEPES, pH 7.2/0.015% Brij-35/0.1% Coating Reagent #3/1:200 Coating Reagent #8/10 mM EDTA/5% DMSO.
Compound Plate Preparation:
For serial dilutions, 34.6 μl DMSO was added to columns 3-24. For the assay controls, 37.5 μl DMSO was added to columns 1 and 2 of rows A and P. a,d and 50 μl 25 μM G-028831 (Staurosporine) was added to columns 1 and 2, row B. For the samples: to start at 100 μM, 37.5 μl DMSO was to columns 1 and 2, then 12.5 μl 10 mM compound; to start at 10 μM, 78 μl DMSO was added to columns 1 & 2, then 2 μl 10 mM compound; and to start at 1 μM, 25 μM compound (2 μl 10 mM cmpd+798 μl DMSO) was added to empty columns 1 and 2. A Precision instrument was used to perform 1:3.16 serial dilutions (“PLK_BM_serial_halflog”).
ATP was diluted to 282.1 μM in Complete Kinase Buffer (final concentration was 130 μM).
Total and Blank Preparation:
In Complete Reaction Buffer, substrate was diluted to 4 μM. Equal volumes of Complete Reaction Buffer and 4 μM substrate were combined to obtain the blank. Equal volumes of Complete Reaction Buffer and 4 μM substrate were combined and to the combined solution was added 2× final LRRK2 concentration.
To a 50 μl polypropylene plate, 5 μl/well buffer/substrate was added by hand to Blank wells. A Biomek FX was used to start the kinase reaction (“PLK SAR 23 ATP”). The following were added to the appropriate wells:
5 μl/well compound/ATP in Assay Plate;
5 μl/well kinase/substrate in Assay Plate;
The plate was incubated for 2 hours in the dark. Biomek FX was used to stop the kinase reaction (“PLK Stop”), and 10 μl/well Stop solution was added to the Assay Plate. Results were read on the LabChip 3000.
The LabChip 3000 was run using the job “LRRK2 IC50” with the following job settings:
Downstream voltage: −500 V
Upstream voltage: −2350 V
Post sample buffer sip time: 75 seconds
Post dye buffer sip time: 75 seconds
Final delay time: 200 seconds

Sequence of LRRK2 (Q5S007 970-2527 G2019S): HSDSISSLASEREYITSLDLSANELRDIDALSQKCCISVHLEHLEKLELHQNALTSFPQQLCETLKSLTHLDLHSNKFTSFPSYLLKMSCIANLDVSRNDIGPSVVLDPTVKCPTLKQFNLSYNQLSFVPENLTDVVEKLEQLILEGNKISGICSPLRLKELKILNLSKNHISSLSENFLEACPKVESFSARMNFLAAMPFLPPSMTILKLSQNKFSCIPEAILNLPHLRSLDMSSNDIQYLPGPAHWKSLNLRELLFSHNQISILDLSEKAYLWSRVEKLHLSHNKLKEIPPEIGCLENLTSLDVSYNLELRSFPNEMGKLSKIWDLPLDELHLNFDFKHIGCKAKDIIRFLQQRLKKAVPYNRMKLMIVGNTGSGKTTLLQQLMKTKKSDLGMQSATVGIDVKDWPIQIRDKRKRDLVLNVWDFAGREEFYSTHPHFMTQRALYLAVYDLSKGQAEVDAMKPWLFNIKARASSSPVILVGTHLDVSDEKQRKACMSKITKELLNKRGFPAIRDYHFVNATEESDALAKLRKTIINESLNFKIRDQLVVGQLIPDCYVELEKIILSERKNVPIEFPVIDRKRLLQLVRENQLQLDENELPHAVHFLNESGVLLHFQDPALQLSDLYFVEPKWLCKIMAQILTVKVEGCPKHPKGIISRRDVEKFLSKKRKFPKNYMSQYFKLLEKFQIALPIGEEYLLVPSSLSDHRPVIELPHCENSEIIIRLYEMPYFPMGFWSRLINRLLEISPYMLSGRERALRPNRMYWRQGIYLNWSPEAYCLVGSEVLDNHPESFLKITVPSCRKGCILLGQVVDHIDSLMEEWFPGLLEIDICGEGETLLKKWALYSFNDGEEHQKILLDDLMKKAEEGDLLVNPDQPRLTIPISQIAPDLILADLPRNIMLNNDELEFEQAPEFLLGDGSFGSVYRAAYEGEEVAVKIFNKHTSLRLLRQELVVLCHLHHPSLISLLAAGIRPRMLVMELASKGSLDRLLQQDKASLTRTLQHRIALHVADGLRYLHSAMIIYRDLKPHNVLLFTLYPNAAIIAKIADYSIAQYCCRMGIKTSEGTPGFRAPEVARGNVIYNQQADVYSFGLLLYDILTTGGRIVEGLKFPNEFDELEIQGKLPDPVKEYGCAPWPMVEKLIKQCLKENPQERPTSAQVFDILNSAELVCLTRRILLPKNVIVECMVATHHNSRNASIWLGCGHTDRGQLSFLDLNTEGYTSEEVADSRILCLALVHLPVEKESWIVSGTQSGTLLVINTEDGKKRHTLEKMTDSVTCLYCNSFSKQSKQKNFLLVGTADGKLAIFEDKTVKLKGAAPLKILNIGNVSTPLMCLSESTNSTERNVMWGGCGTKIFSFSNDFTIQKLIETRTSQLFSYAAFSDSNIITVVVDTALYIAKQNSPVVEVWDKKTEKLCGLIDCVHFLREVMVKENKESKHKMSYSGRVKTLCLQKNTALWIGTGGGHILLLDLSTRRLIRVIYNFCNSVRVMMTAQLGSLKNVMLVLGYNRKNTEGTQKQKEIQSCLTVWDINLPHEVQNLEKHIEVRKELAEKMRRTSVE

Structure (SMILES)	Ki [nM]
CNc1nc(Nc2cc(C)c(C#N)cc2Cl)ncc1C(F)(F)F [Example 10, 5-Chloro-2-methyl-4-(4-methylamino-5-trifluoromethyl-pyrimidin-2-ylamino)-benzonitrile]	46
CCNc1nc(Nc2ccc(S(C)(=O)=O)c3c2OCCO3)ncc1C(F)(F)F [Example 38, N4-ethyl-N2-(8-(methylsulfonyl)-2,3-dihydrobenzo[b][1,4]dioxin-5-yl)-5-(trifluoromethyl)pyrimidine-2,4-diamine]	3
COc1nc(Nc2ccc(S(C)(=O)=O)cc2Cl)ncc1Cl [Example 6, (2-Chloro-4-methanesulfonyl-phenyl)-(5-chloro-4-methoxy-pyrimidin-2-yl)-amine]	61
CNc1nc(Nc2ccc(C(F)(F)F)cc2OC)ncc1C(F)(F)F [Example 27, N2-(2-methoxy-4-(trifluoromethyl)phenyl)-N4-methyl-5-(trifluoromethyl)pyrimidine-2,4-diamine]	23
CNc1nc(Nc2ccc(S(C)(=O)=O)cc2OC)ncc1C(F)(F)F [Example 1, N2-(2-Methoxy-4-(methylsulfonyl)phenyl)-N4-methyl-5-(trifluoromethyl)pyrimidine-2,4-diamine]	2
COc1nc(Nc2ccc(S(C)(=O)=O)cc2OCCF)ncc1Cl [Example 18, (5-Chloro-4-methoxy-pyrimidin-2-yl)-[2-(2-fluoro-ethoxy)-4-methanesulfonyl-phenyl]-amine]	12
CNc1nc(Nc2ccc(S(C)(=O)=O)cc2OCCF)ncc1Cl [Example 17, 5-Chloro-N2-[2-(2-fluoro-ethoxy)-4-methanesulfonyl-phenyl]-N4-methyl-pyrimidine-2,4-diamine]	12
CNc1nc(Nc2ccc(S(C)(=O)=O)cc2OC)ncc1Cl [Example 2, 5-Chloro-N2-(2-methoxy-4-(methylsulfonyl)phenyl)-N4-methylpyrimidine-2,4-diamine]	2
CNc1nc(Nc2ccc(C#N)cc2OC)ncc1Cl [Example 5, 4-(5-Chloro-4-(methylamino)pyrimidin-2-ylamino)-3-methoxybenzonitrile]	8
CNc1nc(Nc2cc(Cl)c(C(=O)O)cc2OC)ncc1Cl [Example 29, 2-chloro-4-(5-chloro-4-(methylamino)pyrimidin-2-ylamino)-5-methoxybenzoic acid]	36
CNc1nc(Nc2cc(C)c(S(C)(=O)=O)cc2OC)ncc1C(F)(F)F [Example 36, N2-(2-methoxy-5-methyl-4-(methylsulfonyl)phenyl)-N4-methyl-5-(trifluoromethyl)pyrimidine-2,4-diamine]	3
CNc1nc(Nc2ccc(S(C)(=O)=O)cc2OC(C)C)ncc1C(F)(F)F [Example 16, N2-(2-Isopropoxy-4-methanesulfonyl-phenyl)-N4-methyl-5-trifluoromethyl-pyrimidine-2,4-diamine]	17

Further lines, results first:

Ki [nM]	Structure (SMILES)
4	CNc1nc(Nc2cc(F)c(CN3CCOCC3)cc2OCCF)ncc1C(F)(F)F [Example 21, N2-[5-Fluoro-2-(2-fluoro-ethoxy)-4-morpholin-4-ylmethyl-phenyl]-N4-methyl-5-trifluoromethyl-pyrimidine-2,4-diamine]
3	CNc1nc(Nc2cc(F)c(C3COC3)cc2OC)ncc1C(F)(F)F [Example 33, N2-(5-fluoro-2-methoxy-4-(oxetan-3-yl)phenyl)-N4-methyl-5-(trifluoromethyl)pyrimidine-2,4-diamine]
27	CNc1nc(Nc2cc(F)c(CN3CCOCC3)cc2OC)ncc1C#N [Example 11, 2-(5-Fluoro-2-methoxy-4-morpholin-4-ylmethyl-phenylamino)-4-methylamino-pyrimidine-5-carbonitrile]
14	CCNc1nc(Nc2cc(F)c(CN3CCOCC3)cc2OC)ncc1C#N [Example 12, 4-Ethylamino-2-(5-fluoro-2-methoxy-4-morpholin-4-ylmethyl-phenylamino)-pyrimidine-5-carbonitrile]
3	CNc1nc(Nc2cc(F)c(S(C)(=O)=O)cc2OC)ncc1C(F)(F)F [Example 15, N2-(5-Fluoro-4-methanesulfonyl-2-methoxy-phenyl)-N4-methyl-5-trifluoromethyl-pyrimidine-2,4-diamine]
3	CNc1nc(Nc2ccc(CN3CCOCC3)cc2OC)ncc1C(F)(F)F [Example 9, N2-(2-Methoxy-4-morpholin-4-ylmethyl-phenyl)-N4-methyl-5-trifluoromethyl-pyrimidine-2,4-diamine]
5.5	CNc1nc(Nc2cc(F)c(N3CCCCC3=O)cc2OC)ncc1C(F)(F)F [Example 32, 1-(2-fluoro-5-methoxy-4-(4-(methylamino)-5-(trifluoromethyl)pyrimidin-2-ylamino)phenyl)piperidin-2-one]
3	CNc1nc(Nc2cc(F)c(N3CCOCC3=O)cc2OC)ncc1C(F)(F)F [Example 31, 4-(2-fluoro-5-methoxy-4-(4-(methylamino)-5-(trifluoromethyl)pyrimidin-2-ylamino)phenyl)morpholin-3-one]
12	CNc1nc(Nc2cc(C)c(C#N)cc2OC)ncc1C(F)(F)F [Example 13, 5-Methoxy-2-methyl-4-(4-methylamino-5-trifluoromethyl-pyrimidin-2-ylamino)-benzonitrile]
